The source of these data is US20070197452A1, “Treatment of amyloid-related diseases” (priority 2006, published 2007).

“Also recorded” adds a separate entry of the source.

One data set deals with TgCRND8 mice. Kind of data set: Accelerating rotarod, sensorimotor function. Format: in vivo, mouse. To be noted: treated vs untreated TgCRND8 mice and non-Tg littermates. As to the method: Behavioural tests: Morris Water Maze testing was performed as previously described. After non-spatial pre-training, mice underwent place discrimination training for 5 days with 4-trials per day, followed by a cued visible platform to rule out general motivational, learning deficits and motor problems, and a probe trial to evaluate memory. […] Open field test for motor activity was preformed as described previously. Duration of walking, pausing and grooming were analyzed as indices of spontaneous locomotor activity. Sensorimotor function was examined with an Economex™ accelerating rotarod (Columbus Instruments, Columbus, Ohio), as described elsewhere. The rod was set to accelerate at a rate of 0.2 r.p.m./s, from an initial, constant speed of 5 r.p.m. Latency to fall was recorded in four daily trials, conducted at 30 min intervals. All mice were trained for seven days before testing. The test day performance score for each animal was obtained by summing its latency to fall over the four trials
Behavioral tests. Morris water maze testing was carried out as previously described. […] Sensorimotor function was assessed with an Economex accelerating rotarod (Columbus Instruments) as previously described.
Duration of walking, pausing and grooming were analyzed as indices of spontaneous locomotor activity. […] Latency to fall was recorded in four daily trials, conducted at 30 min intervals. […]
In general terms: Falling from the rotarod earlier than controls is read as motor impairment.

Data set [1] relates to transgenic TauP301L mouse model of frontotemporal dementia. The data set is described as follows: Astrogliosis in transgenic TauP301L mice. Format: in vivo. To be noted: transgenic Tau (P301L) mice. Here is the method: Gliosis Quantitation. Five randomly selected, evenly spaced, sagittal sections were collected from paraformaldehyde-fixed and frozen hemispheres of treated and control mice. Sections were immunolabelled for astrocytes with anti-rat GFAβ IgG2a (Dako; diluted 1:50) and for microglia with anti-rat CD68 IgG2b (Dako; 1:50). Digital images were captured using a Coolsnap digital camera (Photometrics, Tuscon, Ariz.) mounted to a Zeiss, Axioscope 2 Plus microscope. Images were analysed using Openlab 3.08 imaging software (Improvision, Lexington Mass.). Quantification of gliosis. Five randomly selected, evenly spaced sagittal sections from paraformaldehyde-fixed and frozen hemispheres of treated and control mice were collected. Sections were immunolabeled for astrocytes with an antibody against rat GFAβ IgG2a (Dako; diluted 1:50) and for microglia with an antibody to rat CD68 IgG2b (Dako; 1:50). Digital images were captured using a Coolsnap digital camera (Photometrics) mounted to a Zeiss, Axioscope 2 Plus microscope. Images were analyzed using Openlab 3.08 imaging software (Improvision).

For data set [2], the system named is transgenic TauP301L mouse model. Kind of data set: Synaptophysin quantification in TgTauP301L mice. Format: in vivo. The note with it: TgTauP301L mice after treatment. Here is the method: Synaptophysin immunohistochemical staining was performed on 3 evenly spaced saggital sections of paraformaldehyde-fixed treated and control mice. Sections were immunolabelled for synaptophysin with anti-synaptophysin IgG (1:40; Roche, Laval, PQ). Digital images were captured and analyzed as described above. Within each section, three randomly chosen 100 μm2 areas of the CA1 region of the hippocampus were counted for synaptophysin reactive cell bodies and boutons. The results are expressed as the mean of the number of reactive bodies and boutons per 100 μm2 [33, 34].
Synaptophysin quantification. Immunohistochemical staining was carried out for synaptophysin on three evenly spaced sagittal sections of paraformaldehyde-fixed treated and control mice. Sections were immunolabeled for synaptophysin with synaptophysin-specific IgG (1:40; Roche). Digital images were captured and analyzed as described above. Within each section, three randomly chosen 100 μm2 areas of the CA1 region of the hippocampus were counted for synaptophysin-reactive cell bodies and boutons. The results are expressed as the mean of the number of reactive bodies and boutons per 100 μm2 [33, 34].

Another data set relates to γ-secretase. The data set is described as follows: In vitro γ-secretase assay in HEK293 cells transfected with human APPswe. Format: cell-based. As to the method:
FIG. 9. In vitro γ-secretase assays in HEK293 cells transfected with human APPswe. After swAPP stable HEK293 cells were untreated or treated with AZD-103 or 10 nM compound E, cell membranes were used for APP-FL and —CTF detection and for e-stubs generation in vitro assays at 37° C. for 1 hr. Lanes 1&[…] AZD-103 treatment; lanes 3&4 […] AZD-103 treatment; lanes 5&6 compound E treated and lanes 7&8 untreated HEK293 APPswe cells.
Analysis of APP processing. Mouse hemi-brain samples were homogenized and spun at 109,000 g, in 20 mM Tris pH 7.4, 0.25 M sucrose, 1 mM EDTA and 1 mM EGTA, and a protease inhibitor cocktail, mixed with a mixture of 0.4% DEA (diethylamine) and 100 mMNaCl. The supernatants were analyzed for APP levels by western blotting using the monoclonal antibody 22C11, and the pellets were analyzed for APP holoprotein with the monoclonal antibody C1/6.1 as previously described. […] The target protein was probed with polyclonal APP C-terminal fragment-specific antibody (Sigma) by western blotting.

Another data set has as its target T1, β-secretase (Homo sapiens, UniProt P56817).
T1 construct: endogenous in cells
The data set is described as follows: In vitro β-secretase activity assay. Format: cell-based.

The next data set has as its target T2, Aβ42 (Homo sapiens, UniProt P05067).
T2 construct: analyzed for Aβ40 and Aβ42 using commercially available kits; from tissue; host or cells: hemi-brain homogenates and plasma of TgCRND8 transgenic mice
The data set is described as follows: Plasma Aβ42 level. Format: in vivo, mouse. To be noted: TgCRND8 mice; 28 days of therapy at five months of age; untreated 1144±76 pg/ml. Here is the method: Plasma and Cerebral Aβ Content. Hemi-brain samples were homogenized in a buffered sucrose solution, followed by either 0.4% diethylamine/100 mM NaCl for soluble Aβ levels or cold formic acid for the isolation of total Aβ. After neutralization, the samples were diluted and analyzed for Aβ40 and Aβ42 using commercially available kits (BIOSOURCE International). Each hemisphere was analyzed in triplicate and the mean values±SEM reported. Western blot analyses were performed on all fractions using urea gels for Aβ species analyses. Aβ was detected using 6E10 (BIOSOURCE International) and Enhanced Chemiluminenscence (Amersham).
Plasma and cerebral Aβ content. Hemi-brain samples were homogenized in a buffered sucrose solution, followed by either a mixture of 0.4% diethylamine and 100 mM NaCl for soluble Aβ levels or cold formic acid for the isolation of total Aβ. After neutralization, samples were diluted and analyzed for Aβ40 and Aβ42 using commercially available kits (Biosource International). Each hemisphere was analyzed in triplicate and the mean±s.e.m. was reported. Western blot analyses were carried out on all fractions using urea gels for Aβ species analyses. Aβ was detected using 6E10 (Biosource International).

T2 sequence (P05067 672-713 limits assumed): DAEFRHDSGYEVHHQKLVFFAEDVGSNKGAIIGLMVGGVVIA
T1 sequence (P56817 46-501): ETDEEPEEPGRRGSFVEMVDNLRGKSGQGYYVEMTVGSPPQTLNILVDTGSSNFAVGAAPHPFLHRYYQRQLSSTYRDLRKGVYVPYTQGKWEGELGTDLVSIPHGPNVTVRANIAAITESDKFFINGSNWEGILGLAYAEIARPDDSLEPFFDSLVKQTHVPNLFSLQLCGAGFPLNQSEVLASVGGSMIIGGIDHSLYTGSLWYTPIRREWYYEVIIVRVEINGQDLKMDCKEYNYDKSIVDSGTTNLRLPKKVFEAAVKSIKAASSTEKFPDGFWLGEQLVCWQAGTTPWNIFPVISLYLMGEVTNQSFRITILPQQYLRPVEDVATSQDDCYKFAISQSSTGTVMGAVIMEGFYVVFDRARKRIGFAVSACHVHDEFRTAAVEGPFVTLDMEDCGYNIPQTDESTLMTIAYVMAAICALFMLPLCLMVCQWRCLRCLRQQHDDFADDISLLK

On to `OC1C(O)C(O)C(O)C(O)C1O` (stereo not drawn) [scyllo-cyclohexanehexol, 1,3,5/2,4,6-(scyllo-) cyclohexanehexol], for which the rotarod sensorimotor function entry in the data set on TgCRND8 mice is “no difference; also recorded: indistinguishable”. Also, the astrogliosis result in data set [1] was “did not prevent the astrogliosis”; in data set [1] (listed as Scyllo-cyclohexanehexol), “no effect”. Further, the figures for the “synaptophysin reactivity / synaptic loss” value in data set [2], in data set [2] (listed as AZD-103) and in data set [2] (listed as scyllocyclohexanehexol) were “unchanged”, “unchanged” and “no effect on synaptic loss”, respectively. The γ-secretase enzyme activity result in the data set on γ-secretase is on record as “no effect”. Further, the β-secretase enzyme activity result on β-secretase was “no effect”.

As to `OC1C(O)C(O)C(O)C(O)C1O` (stereo not drawn) [epi-cyclohexanehexol, 1,2,3,4,5/6-(epi-) cyclohexanehexol, reference compound], the “Plasma Aβ42 levels” value on Aβ42 came to 1079 ± 79 pg/mL.
